# Legend:
# Type in all cases: biochemical
# [1] = Measurement of DPPH radical-scavenging activity; details: 500 ppm solution (with vitamin C: each 500 ppm), 100 μl aliquot, 20 minutes room temperature in the dark
# Description: Each sample shown in Table 1 described below was examined for DPPH (1,1-diphenyl-2-picrylhydrazyl) radical-scavenging activity. Namely, the lemon glycoside of Comparative Example 1, the eriocitrin of Comparative Example 2, the enzyme-treated aglycon of Test Example 1, or eriodictyol, neoeriocitrin, vitamin C, or α-tocopherol purchased from Funakoshi was dissolved at its concentration of 500 ppm in a solvent to produce an aqueous solution. Then, 100 μl aliquot of the aqueous solution was supplemented with 1 ml of 0.1 M Tris buffer (pH 7.4). The solvent used for α-tocopherol was methanol. Alternatively, each sample described above and vitamin C were dissolved at each concentration of 500 ppm in a solvent to produce an aqueous solution whose 100 μl aliquot was then supplemented with 1 ml of 0.1 M Tris buffer. Subsequently, 2 ml of a DPPH solution (solution obtained by dissolving DPPH at its concentration of 500 μM in ethanol) was added to the solutions and well mixed. The resulting solutions were left at room temperature for 20 minutes in the dark to undergo reaction. The amount of DPPH in each reaction solution (10 μl) was quantified by measurement using HPLC Analysis System 2 described below under HPLC Condition 3. In a method of evaluating radical-scavenging activity, the amount of DPPH remaining in the sample (glycoside and aglycon)-free test section (control) was regarded in advance as 100%. Additionally, the amount of DPPH remaining in the reaction solution supplemented with each sample was measured and indicated by percentage (%) with respect to the amount of DPPH in the control section. Because the radical-scavenging activity of the section supplemented with eriodictyol and vitamin C was almost 100%, the test was conducted again with the amount of the sample reduced to half. Namely, eriodictyol and vitamin C were dissolved at each concentration of 500 ppm in a solvent to produce an aqueous solution whose 50 μl aliquot was then supplemented with 1 ml of 0.1 M Tris buffer. The radical-scavenging activity of the resulting solution was measured as described above. The obtained numeric value was doubled to thereby correct the data. The result is shown in Table 1. <HPLC Analysis System 2> Pump: Shimadzu LC-10AD, System Controller: Shimadzu SCL-10A, Autoinjector: Shimadzu SIL-10A, Detector: Shimadzu SPD-10A (UV spectrophotometric detector), Column Oven: Shimadzu CTO-10A <HPLC Condition 3> Column: TSK-GEL octyl-80Ts (4.6 i.d.×150 mm), Eluent: methanol/water=30/70 (v/v), Flow Rate: 1 ml/min, Detection Wavelength: 517 nm
# [2] = Inhibitory effects on generation of peroxide lipid, methyl linoleate as substrate; details: 100 μl of 500 ppm solution, 89 mg methyl linoleate, 40° C. 18 hours in the dark
# Description: Each sample shown in Table 1 described above was examined for inhibitory effects on the generation of peroxide lipid, with methyl linoleate as a substrate. Namely, 100 μl of each aqueous solution used in the paragraph (Measurement of radical-scavenging activity) and 89 mg (100 μl) of methyl linoleate were added to a small test tube of 14 mm in inner diameter and well mixed. At the same time, 100 μl of only the solvent for the aqueous solution was added instead of the aqueous solution to prepare a control. The solvents in these mixture solutions were completely removed in a vacuum desiccator using a vacuum pump. The resulting solutions were left in the dark at 40° C. for 18 hours. Next, 5 ml of 0.08% BHT (2,6-di-t-butyl-4-methylphenol)/hexane solution was added thereto. The amount of peroxide generated from methyl linoleate was measured using HPLC Analysis System 2 shown below under HPLC Condition 4. In a method of measuring and evaluating antioxidative activity, the total of HPLC peak area of peroxide lipids (13-hydroperoxide and 9-hydroperoxide) generated from methyl linoleate in the control test section was determined first. This determined value was regarded as 100%. The total HPLC peak area of the peroxide lipids in the test section supplemented with each sample was determined. This determined value was indicated by percentage (%) with respect to the total of HPLC peak area of the control to thereby determine a rate of inhibition against the oxidation of methyl linoleate.
# Pump: Shimadzu LC-10AD, System Controller: Shimadzu SCL-10A, Autoinjector: Shimadzu SIL-10A, Detector: Shimadzu SPD-10A (UV spectrophotometric detector), Column Oven: Shimadzu CTO-10A
# Column: Develosil ST 60-5 (4.6 i.d.×250 mm), Eluent: n-hexane/1,4-dioxane/isopropylalcohol=98/1/1 (v/v/v), Flow Rate: 1 ml/min, Detection Wavelength: 235 nm
# [3] = Inhibitory effect on oxidation of biomembrane using liposome (SUV, AAPH, TBA); details: 500 ppm sample in phosphate buffer pH 7.4, AAPH, 535 nm
# Description: A single compartment liposome (SUV: Small Unilamellar Vesicle) was used as a biomembrane model to evaluate antioxidative power. For preparing SUV, at first, 100 mg of yolk lecithin was supplemented with 1 ml of chloroform and completely dissolved, followed by the complete removal of the chloroform in a short-neck flask. The obtained lipid film was swollen by the addition of 10 ml of 10 mM phosphate buffer (pH 7.4) containing 500 ppm of the lemon glycoside of Comparative Example 1, the eriocitrin of Comparative Example 2, the enzyme-treated aglycon of Test Example 1, or eriodictyol (manufactured by Funakoshi). The resulting mixture was well shaken and completely dispersed with an ultrasonic washing machine. The lipid film swollen by the addition of 10 ml of only the phosphate buffer was tested as a control in the same way. Next, the obtained multilayer liposome solution was bubbled with nitrogen gas for 5 minutes and then sonicated at 180 W for 20 minutes in a strong ultrasonic generator to prepare a small unilamellar vesicle (SUV).
# The peroxidation of the SUV thus prepared was forcedly promoted by the addition of AAPH ([…]), a radical initiator, to the SUV. As a result, a peroxide as a primary product is generated in the liposome. Subsequently, as a secondary product such as malondialdehyde is generated during the course of autoxidation. A thiobarbituric acid (TBA) reagent is added thereto to generate a red substance (TBA-positive substance), a reaction product of aldehydes. The degree of coloration thereof was measured with a spectrophotometer at λ=535 nm and used to determine the rate of oxidation of the liposome membrane (%).
# [4] = Measurement of rate of elimination of active oxygen (xanthine oxidase / xanthine / nitro blue tetrazolium); details: as printed for α-tocopherol in the active oxygen test
# Description: Xanthine oxidase (0.5 ml (5.6 units)) was mixed with 0.3 ml of 1 mM xanthine (manufactured by Wako Pure Chemical Industries), 0.3 ml of 0.25 mM nitro blue tetrazolium (manufactured by Wako Pure Chemical Industries), and 2.3 ml of 0.05 M sodium carbonate buffer (pH 10.2). The xanthine oxidase used was a reagent (manufactured by Wako Pure Chemical Industries) diluted at 100 fold with 0.05 M sodium carbonate buffer. This mixture was supplemented with 0.1 ml (concentration: 1000 ppm) of the lemon glycoside of Comparative Example 1 or the enzyme-treated aglycon of Test Example 1 and incubated. Because blue formazan was produced with a lapse of incubation time, absorbance at λ=560 nm was measured using a spectrophotometer (HITACHI spectrophotometer U2000) after 3 minutes of incubation. A test section without addition of the sample (glycoside and aglycon) was used as control. As a blank test, a sodium carbonate buffer was added instead of the xanthine oxidase to perform the same procedures. A value obtained by subtracting the absorbance of the blank test from the absorbance of the solution supplemented with each sample was divided by the absorbance of the control to thereby determine a rate of elimination of active oxygen (%).
Structure (SMILES),DPPH radical-scavenging activity [1] [%],Rate of inhibition against oxidation of methyl linoleate [2] [%],rate of oxidation of the liposome membrane [3] [%],rate of oxidation [4] [%]
"O=C1C[C@@H](c2ccc(O)c(O)c2)Oc2cc(O)cc(O)c21 [Eriodictyol, eriodictyol]",75.70,20.99,6.80,
"C[C@@H]1O[C@@H](O[C@H]2[C@H](Oc3cc(O)c4c(c3)O[C@H](c3ccc(O)c(O)c3)CC4=O)O[C@H](CO)[C@@H](O)[C@@H]2O)[C@H](O)[C@H](O)[C@H]1O [Neoeriocitrin, neoeriocitrin]",30.70,9.24,,
"C[C@@H]1O[C@@H](OC[C@H]2O[C@@H](Oc3cc(O)c4c(c3)O[C@H](c3ccc(O)c(O)c3)CC4=O)[C@H](O)[C@@H](O)[C@@H]2O)[C@H](O)[C@H](O)[C@H]1O [Eriocitrin, eriocitrin]",28.64,8.00,9.52,
"O=C1O[C@H]([C@@H](O)CO)C(O)=C1O [Vitamin C, ascorbic acid]",14.00,8.32,,
Cc1c(C)c2c(c(C)c1O)CC[C@@](C)(CCC[C@H](C)CCC[C@H](C)CCCC(C)C)O2 [α-tocopherol],44.82,16.97,76.87,238.2
